Measurements: ChEMBL document CHEMBL1125013, “Quinazoline antifolate thymidylate synthase inhibitors: 2'-fluoro-N10-propargyl-5,8-dideazafolic acid and derivatives with modifications in the C2 position” (J Med Chem, 1990)

What was measured:
L1210 (R7A) = assay: Concentration required to inhibit 50% growth of L1210 of R7A mutant mouse leukemia cell line was determined; assay type: functional, cell-based
L1210 [1] = assay: The inhibitory activity was determined on L1210 mouse leukemia cell in presence of thymidine; assay type: functional; parameters: scale not given: the % may be the effect or the level left
L1210 (1565) = assay: cells; assay type: functional, cell-based; details: Mus musculus
Description: Concentration required to inhibit 50% growth of L1210 /1565 mutant mouse leukemia cell line was determined

L1210 [2] = assay: Concentration required to inhibit 50% growth of L1210 mouse leukemia cells was determined; assay type: functional, cell-based
Thymidylate synthase = Thymidylate synthase (Mus musculus, UniProt P07607); assay: Concentration required to inhibit 50% activity of Thymidylate synthase was determined
Sequence of Thymidylate synthase (P07607 whole entry): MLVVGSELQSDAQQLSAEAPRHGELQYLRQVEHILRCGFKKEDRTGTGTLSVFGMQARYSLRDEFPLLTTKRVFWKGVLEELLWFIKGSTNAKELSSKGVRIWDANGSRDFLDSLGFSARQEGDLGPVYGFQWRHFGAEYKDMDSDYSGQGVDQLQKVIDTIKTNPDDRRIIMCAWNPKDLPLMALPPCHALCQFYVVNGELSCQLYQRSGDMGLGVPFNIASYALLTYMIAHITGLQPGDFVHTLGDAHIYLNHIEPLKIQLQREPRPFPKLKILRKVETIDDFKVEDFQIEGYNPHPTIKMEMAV

IC50 (L1210 (R7A)) [nM]	IC50 (L1210 (1565)) [nM]	IC50 (L1210 [2]) [nM]	IC50 (Thymidylate synthase) [nM]	SMILES	Control (L1210 [1]) [%]
7500	4100	360		C#CCN(Cc1ccc2nc[nH]c(=O)c2c1)c1ccc(C(=O)N[C@@H](CCC(=O)O)C(=O)O)cc1	100
6200	600	1100	9	C#CCN(Cc1ccc2nc(N)[nH]c(=O)c2c1)c1ccc(C(=O)N[C@@H](CCC(=O)O)C(=O)O)c(F)c1	84
	6000	1900		C#CCN(Cc1ccc2nc(CO)[nH]c(=O)c2c1)c1ccc(C(=O)N[C@@H](CCC(=O)O)C(=O)O)c(F)c1	82
	45000	1000	36	C#CCN(Cc1ccc2nc(OC)[nH]c(=O)c2c1)c1ccc(C(=O)N[C@@H](CCC(=O)O)C(=O)O)c(F)c1	89
110	2200	27	20	C#CCN(Cc1ccc2nc(C)[nH]c(=O)c2c1)c1ccc(C(=O)N[C@@H](CCC(=O)O)C(=O)O)c(F)c1	97
14000	160000	1900		C#CCN(Cc1ccc2nc(OC)[nH]c(=O)c2c1)c1ccc(C(=O)N[C@@H](CCC(=O)O)C(=O)O)cc1	100
41000	3600	3500		C#CCN(Cc1ccc2[nH]c(N)nc(=O)c2c1)c1ccc(C(=O)N[C@@H](CCC(=O)O)C(=O)O)cc1	96
3800	1200	290	58	C#CCN(Cc1ccc2nc[nH]c(=O)c2c1)c1ccc(C(=O)N[C@@H](CCC(=O)O)C(=O)O)c(F)c1	84
390	8300	85		C#CCN(Cc1ccc2nc(C)[nH]c(=O)c2c1)c1ccc(C(=O)N[C@@H](CCC(=O)O)C(=O)O)cc1	100
